Entries after “also recorded” stand apart in the source; their conditions may differ.
Columns and labels:
[1] = preclinical studies (Willis et al. 2010; Hadera et al. 2014); cited from earlier work
[2] = clinical trials, e.g., NCT01379625 and NCT01993186 (Vockley et al. 2017); cited from earlier work
germline Gpt2-null mice = assay: Dietary supplementation of germline Gpt2-null mice: survival and phenotype; assay type: in vivo, mouse
Description: Vertebrate animal assays. The assays use a wild-type mouse line and a genetically modified mouse line (i.e., germline Gpt2-null line). A person having ordinary skill in the biomedical art can perform these assays following the procedures in protocol 18-11-0002, approved by the Brown University Institutional Animal Care and Use Committee (IACUC). All animals used in assays described in this specification were housed at the Brown University Animal Care Facility.
Rescue of motor phenotype in vivo with dietary modifications. Synthesis of alanine in the brain is prominently deficient in Gpt2-null animals. An overriding hypothesis (OH1) is that, in the absence of GPT2, alanine changes from a non-essential amino acid to an essential amino acid in neurons, and neuronal alanine deficiency impedes protein synthesis and neuronal growth. The inventors determined there is an anaplerotic defect in Gpt2-null brains (OH2). The inventors are attempting to rescue animal survival, weight gain, and health of the motor system by alanine supplementation, anaplerotic supplementation, and the combination. […] The inventors are testing the extent to which other phenotypic aspects, particularly related to motor defects, are ameliorated by alanine supplementation over time with and without anaplerotic supplementation. The inventors also investigate the requirement for exogenous dietary alanine by removing alanine from the diet of Gpt2-null animals.
Alanine supplementation: Littermate germline Gpt2-null and wild-type animals are fed either high-alanine diet (5% by weight), alanine-deprived diet (0%), or standard chow (1.2%). The formulations generated by Envigo are fed to breeding pairs, pregnant mothers, and pups, based on prior studies by Battaglia & Regnault, Placenta, 22, 145-161 (2001). Food is provided ad libitum. Therefore, newborn Gpt2-mutant pups are receiving the diet throughout gestation and from birth onward. […] The inventors measured alanine in peripheral blood and brain tissue by metabolomics. […]

[3] = in vivo; cited from earlier work

CCCCCCC(=O)OCC(COC(=O)CCCCCC)OC(=O)CCCCCC [triheptanoin, reference compound]
antiseizure effects [1]: has antiseizure effects | tolerability [2]: well tolerated

C[C@H](N)C(=O)O [alanine]
effect on survival of germline Gpt2-null animals (in words) (germline Gpt2-null mice; alanine supplementation / high-alanine diet, preliminary work): impact; also recorded: improves the survival | effect on phenotype in the mouse model of Gpt2 disease (in words) (germline Gpt2-null mice; dietary supplementation in development, preliminary data): benefited; also recorded: partially ameliorates the phenotype | survival of germline Gpt2-null pups beyond weaning (germline Gpt2-null mice; supplemental dietary alanine to pregnant and lactating mothers and pups, freely feeding, vs. 0% on standard chow, p<0.0001, log-rank (Mantel-Cox) test): 36.7% | crosses the blood-brain barrier [3]: crosses the blood-brain barrier

Source: US12390436B1, “Mutations in mitochondrial enzyme GPT2 cause metabolic dysfunction and neurological disease with developmental and progressive features” (priority 2020, dated 2025)
